Legend:
HIV-1 protease [1] = target: T1, HIV-1 protease (Human immunodeficiency virus type 1 group M subtype B, UniProt P04585); test: FRET assay of HIV-1 protease inhibitory activity (IC50); type: biochemical; conditions: for IC50: HIV-1 protease 10.2 nM, 15 min preincubation at 25° C., EDANS/DABCYL substrate for C-protected, HiLyte Fluor 488/QXL 520 substrate for deprotected inhibitors
Method: The HIV-1 protease inhibitory activities of the compounds were determined by a FRET method. HIV-1 protease stock solution was diluted with assay buffer (0.1M sodium acetate, 1.0 M sodium chloride, 1.0 mM EDTA, 1.0 mM DTT, 10% DMSO, and 1.0 mg/mL BSA, pH 4.7). All inhibitors were dissolved in DMSO, and diluted to appropriate concentrations with deionized water such that the maximum conc. of DMSO in the buffer was 8.5%. EDANS/DABCYL-based FRET peptide substrate (Ex/Em=340/490 nm) solution in SensoLyte® 490 HIV Protease Assay Kit (Cat. #71127) and HiLyte Fluor™ 488/QXL™ 520-based FRET peptide substrate (Ex/Em=490/520 nm) solution in SensoLyte® 520 HIV Protease Assay Kit (Cat. #71147) were purchased from Anaspec. We needed to use these two different substrates because the compounds without C-protection (throughout this means protection on the oxygen at the C-terminus, a terminal OH) have weak fluorescence that interferes with that from the EDANS/DABCYL-based FRET peptide substrate (Ex/Em=340/490 nm) so an alternative substrate was used.
For the determination of IC50 values, HIV-1 protease (40 μL, 10.2 nM final concentration) and inhibitors (10 μL) were incubated for 15 min at 25° C. Substrate solutions (50 μL) in the buffer were added into the incubated solution to initiate the reaction. EDANS/DABCYL-based FRET peptide substrate was used for C-protected inhibitors, and HiLyte Fluor™ 488/QXL™ 520-based FRET peptide substrate was used for deprotected inhibitors. The total assay volume was 100 μL. Fluorescence was monitored for 5 min at 30° C. in a fluorescence microplate reader (BioTek) at Ex/Em=340/490 nm for ^tBu-protected inhibitors, and Ex/Em=490/520 nm for deprotected inhibitors. The initial velocities were plotted against log [inhibitor] and a sigmoidal curve was fitted to the data points using Graphpad Prism 5 software to obtain IC50 values.

HIV-1 protease [2] = target: T1, HIV-1 protease; test: Zhang-Poorman kinetic assay of HIV-1 protease dimerization inhibition; type: biochemical; conditions: for Ki: calculated from y-intercepts using the Zhang-Poorman equation, HIV-1 protease 0.6 to 5.1 nM
Method: If a compound acts as a dimerization inhibitor, the Zhang-Poorman plot gives a line with a slope similar to that obtained for the uninhibited control but with a different intercept; active-site inhibitors yield different slopes compared with the uninhibited control. For this assay, HIV-1 protease was used at concentrations from 0.6 to 5.1 nM. Substrate solutions were diluted to ¼ solution from the original solution, and then used for the kinetic assay. HIV-1 protease (40 μL) was incubated with or without an inhibitor (10 μL) at the desired concentration for 15 min at 25° C. The diluted substrate solution (50 μL) was added to the incubated solution. Fluorescence was monitored for 15 min at 30° C. in a fluorescence microplate reader (BioTek) at Ex/Em=340/490 nm for C-protected inhibitors, and Ex/Em=490/520 nm for deprotected inhibitors.
Slopes for 1lai-H (8.2±0.6) and 1fla-H (9.3±1.2) compared with uninhibited HIV-1 (9.0±0.6) have different y-intercepts (1lai-H y-intercepts 0.19, 1fla-H y-intercepts 0.73, control y-intercepts 0.013). y-Intercepts of uninhibited HIV-1 have different values between experiments for C-protected and deprotected compounds because the substrates used in the assay are different (see above). The results are consistent with 1-H-1-^tBu (side-chains as indicated above) acting as dimerization inhibitors. We note that it has been reported that inhibition of HIV-1 protease activities by dimerization inhibitors is dependent on the time of pre-incubation with the enzyme and inversely dependent on enzyme concentration; consequently, these factors must be standardized if comparing our data with those from different labs.

GAPDH = GAPDH (Homo sapiens, UniProt P04406); conditions: rescue from apoptosis in vitro; cited from earlier work
Sequence of GAPDH (P04406 whole entry, species assumed): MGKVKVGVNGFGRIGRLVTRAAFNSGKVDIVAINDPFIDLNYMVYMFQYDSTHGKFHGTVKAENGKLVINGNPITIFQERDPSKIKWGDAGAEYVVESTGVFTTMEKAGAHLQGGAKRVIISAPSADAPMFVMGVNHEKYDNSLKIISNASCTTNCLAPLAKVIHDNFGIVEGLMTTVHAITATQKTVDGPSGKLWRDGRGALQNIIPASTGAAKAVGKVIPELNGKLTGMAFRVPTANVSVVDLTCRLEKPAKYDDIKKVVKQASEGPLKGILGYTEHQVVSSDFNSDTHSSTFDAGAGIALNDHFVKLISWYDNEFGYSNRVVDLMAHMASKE

[3] = FIG. 2A, C-protected compounds, Ex/Em=340/490 nm substrate, control 0.42
[4] = FIG. 2A, C-protected compounds, Ex/Em=340/490 nm substrate, uninhibited HIV-1 9.7±0.7
[5] = FIG. 2B, deprotected compounds, Ex/Em=490/520 nm substrate, control 0.013
[6] = FIG. 2B, deprotected compounds, Ex/Em=490/520 nm substrate, uninhibited HIV-1 9.0±0.6

Compound | IC50 (HIV-1 protease [1]) | Ki (HIV-1 protease [2]) | further results
CC(C)C[C@H]1C(N2CC[C@H](N3C(=O)C=C(OC(C)(C)C)[C@@H]3C)C2)=CC(=O)N1[C@H]1CCN(C2=CC(=O)N[C@H]2Cc2ccccc2)C1 [1fla-^tBu, (S)-1-((S)-1-((S)-2-benzyl-5-oxo-2,5-dihydro-1H-pyrrol-3-yl)pyrrolidin-3-yl)-4-((S)-3-((S)-3-(tert-butoxy)-2-methyl-5-oxo-2,5-dihydro-1H-pyrrol-1-yl)pyrrolidin-1-yl)-5-isobutyl-1H-pyrrol-2(5H)-one] | 54.9 ± 6 µM | 21 ± 2.1 µM | y-intercept of Zhang-Poorman plot (HIV-1 protease [2]; [3]): 1.4; slope of Zhang-Poorman plot (HIV-1 protease [2]; [4]): 9.5±0.6
CC[C@H](C)[C@H]1C(OC(C)(C)C)=CC(=O)N1[C@H]1CCN(C2=CC(=O)N([C@H]3CCN(C4=CC(=O)N[C@H]4CC(C)C)C3)[C@H]2C)C1 [1lai-^tBu, (S)-4-(tert-butoxy)-5-((S)-sec-butyl)-1-((S)-1-((S)-1-((S)-1-((S)-2-isobutyl-5-oxo-2,5-dihydro-1H-pyrrol-3-yl)pyrrolidin-3-yl)-2-methyl-5-oxo-2,5-dihydro-1H-pyrrol-3-yl)pyrrolidin-3-yl)-1H-pyrrol-2(5H)-one] | 111 ± 18 µM | 19.4 ± 4.1 µM | y-intercept of Zhang-Poorman plot (HIV-1 protease [2]; [3]): 2.6; slope of Zhang-Poorman plot (HIV-1 protease [2]; [4]): 10.4±1.0
CC(C)C[C@H]1C(OC(C)(C)C)=CC(=O)N1[C@H]1CCN(C2=CC(=O)NC2Cc2ccccc2)C1 (stereo partly drawn) [2fl-^tBu, (5S)-1-((3S)-1-(2-benzyl-5-oxo-2,5-dihydro-1H-pyrrol-3-yl)pyrrolidin-3-yl)-4-(tert-butoxy)-5-isobutyl-1H-pyrrol-2(5H)-one] | 516 µM |  | 
CC(C)C[C@@H]1NC(=O)C=C1N1CC[C@H](N2C(=O)C=C(OC(C)(C)C)[C@@H]2C)C1 [2la-^tBu, (5S)-4-(tert-butoxy)-1-((3S)-1-(2-isobutyl-5-oxo-2,5-dihydro-1H-pyrrol-3-yl)pyrrolidin-3-yl)-5-methyl-1H-pyrrol-2(5H)-one] | 176 ± 16 µM |  | 
C#CCN(C)CC1=Cc2ccccc2Oc2ccccc21 [CGP3466] |  |  | rescuing effect relative to deprenyl (GAPDH): 100 ×
CC(C)C[C@H]1C(N2CC[C@H](N3C(=O)CC(=O)[C@@H]3C)C2)=CC(=O)N1[C@H]1CCN(C2=CC(=O)N[C@H]2Cc2ccccc2)C1 [Compound 1fla-H] | 46.5 ± 8 µM | 0.93 ± 0.3 µM | y-intercept of Zhang-Poorman plot (HIV-1 protease [2]; [5]): 0.73; slope of Zhang-Poorman plot (HIV-1 protease [2]; [6]): 9.3±1.2
CC[C@H](C)[C@H]1C(=O)CC(=O)N1[C@H]1CCN(C2=CC(=O)N([C@H]3CCN(C4=CC(=O)N[C@H]4CC(C)C)C3)[C@H]2C)C1 [Compound 1lai-H, (3′S,5S)-5-((S)-sec-butyl)-1′-((S)-1-((S)-1-((S)-2-Isobutyl-5-oxo-2,5-dihydro-1H-pyrrol-3-yl)pyrrolidin-3-yl)-2-methyl-5-oxo-2,5-dihydro-1H-pyrrol-3-yl)-[1,3′-bipyrrolidine]-2,4-dione] | 3.7 ± 0.3 µM | 0.38 ± 0.07 µM | y-intercept of Zhang-Poorman plot (HIV-1 protease [2]; [5]): 0.19; slope of Zhang-Poorman plot (HIV-1 protease [2]; [6]): 8.2±0.6
CC(C)C[C@H]1C(=O)CC(=O)N1[C@H]1CCN(C2=CC(=O)N[C@H]2Cc2ccccc2)C1 [Compound 2fl-H, (3′S,5S)-1′-(2-benzyl-5-oxo-2,5-dihydro-1H-pyrrol-3-yl)-5-isobutyl-[1,3′-bipyrrolidine]-2,4-dione] | 419 µM |  | 
CC(C)C[C@@H]1NC(=O)C=C1N1CC[C@H](N2C(=O)CC(=O)[C@@H]2C)C1 [Compound 2la-H] |  |  | inhibition of HIV-1 protease (HIV-1 protease [1]; FRET assay, result in words): did not show any inhibition
CC[C@H](C)C1C(=O)CC(=O)N1[C@H]1CCN(C2=CC(=O)N[C@H]2CC(C)C)C1 (stereo partly drawn) [Compound 2li-H] | 623 µM |  | 
CC(C)C[C@@H]1NC(=O)C=C1N1CC[C@H](N2C(=O)C=C(NCCOCCOCCNC3=CC(=O)N([C@H]4CCN(C5=CC(=O)N[C@H]5CC(C)C)C4)[C@H]3C)[C@@H]2C)C1 [Compound 13] | 84.4 ± 10 µM |  | inhibition of HIV-1 protease relative to 2la-^tBu (HIV-1 protease [1]; comparison of IC50 values): two times better inhibition

— US20130288331A1, “PEPTIDOMIMETIC COMPOUNDS AND RELATED METHODS” (priority 2012, published 2013)
